Earlier results in US20150005255A1, “COSMETIC COMPOSITION, FORMULATION IN GEL-CREAM AND ITS USE” (EMS S.A., priority 2013, published 2015).

How the values were obtained:
[1] = system: lysosomal enzymes; settings: in skin care products
[2] = system: localized lipodystrophy

Row | Substance | reduction of lysosomal activity [1] | volume of observed areas with cellulite ([2]; formula of Xantalgosil C applied twice daily for one month, 25 volunteers) | activation of adipocyte lipolysis ([2]; in vivo)
1 | Escin | up to 30% |  | 
2 | acefylline methylsilanol mannuronate [Xantalgosil C] |  | reduction of volume in observed areas | outstanding action
